# Data from US20230391841A1, “MACROCYCLIC PEPTIDES” (Herantis Pharma OYJ, priority 2019, published 2023).
# Bridge positions count the residues as written; N and C are the ends. Peptide text beside a SMILES is read from it.
# What was measured:
# [1] = test system: dopaminergic TH-positive neurons injured with MPP+; assay: Neuroprotective effect on dopaminergic TH-positive neurons injured with MPP+ (primary mesencephalic culture); type: cell-based, rat; conditions: MPP+ injured TH-positive neurons
# Method: Neuroprotective effects of compounds 1-26 (SEQ ID NO: 1-26) were tested in an in vitro model in which primary cultures of rat embryonic mesencephalic neurons were stressed with MPP+ , the active metabolite of neurotoxin 1-methyl-4-phenyl-1,2,3,6-tetrahydropyridine (MPTP). MPP+ kills dopaminergic (TH-positive) neurons via a variety of toxic mechanisms, including mitochondrial dysfunction, generation of peroxynitrite, oxidative stress, ER stress and induction of apoptosis.
# Culture of mesencephalic neurons. Rat dopaminergic neurons were cultured as described by Visanji et al., 2008. Briefly, the midbrains obtained from 15-day-old rat embryos (Janvier, France) were dissected, and the ventral portion of the mesencephalic flexure, a region of the developing brain rich in dopaminergic neurons, was used for the cell preparations. The midbrain cells were dissociated by trypsinization for 20 min at 37° C. (solution at a final concentration of 0.05% trypsin and 0.02% EDTA). The reaction was stopped by adding Dulbecco's modified Eagle's medium (DMEM) containing DNAase I grade II (0.5 mg/mL) and 10% of fetal calf serum (FCS). Cells were then mechanically dissociated by 3 passages through a 10 ml pipette. Cells were then centrifuged at 180×g for 10 min at +4° C. on a layer of BSA (3.5%) in L15 medium. The cell pellets were re-suspended in a defined culture serum-free medium consisting of Neurobasal (Invitrogen) supplemented with B27 (2%), L-glutamine (2 mM) and 2% of PS solution and 1Ong/ml of Brain-derived neurotrophic factor (BDNF) and 1 ng/mL of Glial-Derived Neurotrophic Factor (GDNF). Viable cells were counted in a Neubauer cytometer using the trypan blue exclusion test. The cells were seeded at a density of 40 000 cells/well in 96 well-plates (pre-coated with poly-L-lysine) and maintained in a humidified incubator at 37° C. in 5% CO2/95% air atmosphere. Half of the medium was changed every 2 days with fresh medium. On 96-wells plates, only 60 wells are used. To avoid any edge effect, the first and last lines and columns were not used for culture and were filled with sterile water.
# CDNF as well as linear and macrocyclic compounds […] (SEQ ID NOs: 1-26) were tested. On day 6 of culture, the compounds were dissolved in culture medium and then pre-is incubated with mesencephalic neurons for 4 hours before the MPP+ application. Four hours after the preincubation of the compounds, MPP+ was added to a final concentration of 4 pM, diluted in control medium still in presence of compounds for 48 h.
# 48 h after intoxication, the cells were fixed by a solution of 4% paraformaldehyde in PBS, pH 7.3 for 20 min at room temperature. The cells were washed twice in PBS, and then permeabilized and non-specific sites were blocked with a solution of PBS containing 0.1% of saponin and 1% FCS for 15 min at room temperature. Next, the cells were incubated with (a) a monoclonal antibody anti-Tyrosine Hydroxylase (TH) produced in mouse at dilution of 1:10000 and with (b) a polyclonal antibody anti-alpha-synuclein (α-syn) antibody produced in rabbit at dilution of 1:400 in PBS containing 1% FCS, 0.1% saponin, for 2 h at room temperature.
# 48 h after intoxication, the cell culture supernatant was removed, and the cells fixed by a solution of 4% paraformaldehyde in PBS, pH 7.3 for 20 min at room temperature. The cells were washed twice in PBS, and then permeabilized and non-specific sites were blocked with a solution of PBS containing 0.1% of saponin and 1% FCS for 15 min at room temperature. Then, the cells were incubated with a) a monoclonal Anti-Tyrosine Hydroxylase (TH) antibody produced in mouse at dilution of 1:10000 in PBS containing 1% FCS, 0.1% saponin, for 2 hours at room temperature, and b) a polyclonal anti-postsynaptic density protein-95 (PSD-95) antibody produced in rabbit at dilution of 1:200 in PBS containing 1% FCS, 0.1% saponin, for 2 h at room temperature. This antibody stains specifically synapses. […]
# rat hepatocytes = assay: In vitro metabolic stability in rat hepatocytes; type: in vitro ADME; conditions: 1 μM, 37° C., up to 60 min
# Method: The linear or macrocyclic compounds 1-14 and 23-26 (SEQ ID NOs: […]) were incubated in concentration 1 μM with pooled cryopreserved rat hepatocytes (Sprague-Dawley, male; 400 pl, 1.0 million viable cells/ml for compounds 1-8, 11-12 and 23-26 or 100 μl, 0.1 million viable cells/ml for compounds 9-10 and 13-14) for different time points (0, 10, 20, 40 or 60 min) at 37° C. The cell density and viability were determined by trypan blue exclusion method. The incubation was terminated by acetonitrile. The collected samples were centrifuged for 20 min at 2272×g and analyzed. The samples were analyzed is by UHPLC/PDA with high resolution mass spectrometry (QE-Orbitrap-MS on DDI mode) (compounds 1-8, 11-12 and 23-26) or HHPLC-ToF mass spectrometry (for compounds 9-and 13-14) to monitor disappearance of the compound. Verapramil 1 μM was used as a disappearance rate control. The analytical method was optimized by using the parent compounds for optimum chromatographic properties (peak shape and retention) and mass spectrometric ionization. The Ion chromatograms were extracted from the total ion chromatograms using calculated monoisotopic accurate masses with 5 mDa window. Disappearance was based on LC/MS peak areas, marking 0 min as 100%. The first-order rate constants k (min-1) of the metabolism were obtained from the slope of time versus logarithm (% of remaining compound) plot using Excel software. The in vitro half-life (t1/2) of study compound is defined as: t1/2In2/k. Calculated half-life is based on compound disappearance in rat liver hepatocytes.
# human hepatocytes = assay: In vitro metabolic stability in human hepatocytes; type: in vitro ADME; conditions: 1 μM, 37° C., up to 60 min
# Method: The linear or macrocyclic compounds 1-8, 11-14 and 23-26 (SEQ ID NOs: 1-8, 11-14 and 23-26) were incubated in concentration 1 μM with pooled cryopreserved human hepatocytes (mixed gender; 400 pl, 1.0 million viable cells/ml) for different time points (0, 20, 40 or 60 min) at 37° C. The cell density and viability were determined by trypan blue is exclusion method. The incubation was terminated by acetonitrile. The collected samples were centrifuged for 20 min at 2272×g and analyzed. The samples were analyzed by UPLC/PDA with high resolution mass spectrometry (QE-Orbitrap-MS on DDI mode) to monitor disappearance of the compound. Verapramil 1 μM was used as a disappearance rate control. The analytical method was optimized by using the parent compounds for optimum chromatographic properties (peak shape and retention) and mass spectrometric ionization. The Ion chromatograms were extracted from the total ion chromatograms using calculated monoisotopic accurate masses with 5 mDa window. Disappearance was based on LC/MS peak areas, marking 0 min as 100%. The first-order rate constants k (min-1) of the metabolism were obtained from the slope of time versus logarithm (% of remaining compound) plot using Excel software. The in vitro half-life (t1/2) of study compound is defined as: t1/2In2/k. Calculated half-life is based on compound disappearance in human liver hepatocytes.
smiles,measurement,setting,value
"C[C@@H]1NC(=O)[C@@H]2CSSC[C@H](NC(=O)[C@H]([C@@H](C)O)NC(=O)[C@H](CCC(=O)O)NC(=O)CNC(=O)[C@H](Cc3c[nH]c4ccccc34)NC(=O)[C@H](CO)NC(=O)[C@H](CCCCN)NC(=O)[C@H](CCC(=O)O)NC1=O)C(=O)N[C@@H](CCCCN)C(=O)NCC(=O)NCC(=O)N2 [Compound 26, WGETCKGGCAEKS] (cyclo(AEKSWGETCKGGC); disulfide 9-13)",potency of macrocyclic peptide versus its linear counterpart,[1],comparable
same,stability in rat hepatocytes as compared to linear counterpart,rat hepatocytes,significantly improved stability
same,stability in human hepatocytes as compared to linear counterpart,human hepatocytes,significantly improved stability
